Results reported in patent US7781406B2, “Production and use of the methotrexate-albumin conjugate as an immunosuppressive agent in GVHD” (Albupharm Heidelberg GmbH & Co. KG, priority 2004, dated 2010).

Test system: acute GVHD in F1 hybrid BN/Lew rats
Assay: GVHD animal experiment: irradiated rats after transplantation of bone marrow cells and T lymphocytes
Assay type: in vivo
Conditions: methotrexate-albumin 2 mg/kg i.p. day 0, 4, 8, 12, MTX at equieffective doses
Description: Animal experiments: (authorization No. LVL M-V310-4/7221.3-1.2-015/03 Landesveterinäramt Mecklenburg-Vorpommern Rostock)
Dr. M. Freund in Rostock University clinic under the direction of PD Dr G. Hartung and Dr D. Wolff. These entailed 20 female F1 hybrid BN/Lew rats receiving whole-body irradiation with 7.5 Gy (n=10) or 9 Gy (n=10) and then transplantation of 40 million bone marrow cells and 15 million T lymphocytes from female Lew rats.

CN(Cc1cnc2nc(N)nc(N)c2n1)c1ccc(C(=O)N[C@@H](CCC(=O)O)C(=O)O)cc1 [MTX, 4-amino-4-deoxy-10-methylfolic acid]
side effects: distinct side effect
